Source: patent EP1199078A1, “ANALGESICS” (ONO PHARMACEUTICAL CO., LTD., priority 1999, dated 2000)
Counter-ions that a name gives are not always drawn.

Columns and labels:
[1] = tested on: allodynia model in rats; details: treatment of 50 µmol/kg, Neuroreport, Vol. 9, pp.367-372 (1998); cited from earlier work
[2] = tested on: formalin model in rats; experiment: Formalin test in rats, intrathecal injection; type: in vivo, Sprague-Dawley rats; details: for number of flinch: both doses, 2 or 20µg/10µl/rat intrathecally 10min prior to formalin, compared to vehicle treated group
Protocol: (§1) Eight weeks old male Sprague-Dawley rats were used. According to the method of Yaksh et al., the rat was mounted on the brain stereotaxis apparatus under sodium pentobarbital anesthesia and a polyethylene tube filled with saline was threaded approximately 3cm into intraspinal side through the cisternal incision.
A day after implantation, the rat had no hindlimb paralysis was administered 50µl of 5% formalin subcutaneously and was placed in the observational plastic cage immediately. Formalin injection time was regarded as 0min and for 1min every 5min until 60min, number of leg-up response (flinch) was counted. The compound of formula (IA-1) ((+)-trans-3-imino-5-methyl-7-chloro-2-azabicyclo[4.1.0]heptane Monohydrochloride) of the present invention was dissolved in saline, subsequently the dose of 2 or 20µg/10µl/rat was administered intrathecally via polyethylene tube 10min prior to the formalin injection.

[3] = tested on: Bennett hyperalgesia model in rats; experiment: Hyperalgesia to thermostimulus in Bennett model in rats (plantar test), intrathecal injection; type: in vivo, Sprague-Dawley rats
Source text: as §1, with “Seven” for “Eight”, “al. (J.Physiol. Behav. Vol.17, pp.1031-1036, 1976),” for “al.,”, “about” for “approximately”
A day after implantation, rats had no hindlimb paralysis were restrained in a prostrate position after induction of anesthetization with pentobarbital sodium. According to the method of Bennett and Xie et al. (Pain, Vol.33, pp.87-107, 1988), an incision of 2cm was cut along the skin of the femoral region of the right hindlimb, and the exposed sciatic nerve was constricted with 2 pieces of gut suture at 2 distal sites, and the incision was closed with a piece of silk suture. The left hindlimb was similarly operated on without performing any constriction of the sciatic nerve (sham-operated hindlimb).
Six days after the operation, the response latency to nociceptive thermostimulus was determined with the plantar test device, and rats with hyperalgesia were selected for the drug evaluation study on next day. […] By using a digital timer installed in the plantar testing device, the interval (response latency) from initiation of illumination to the time required for the animal to lift the hindlimb in an attempt to escape was measured. […]

Row | SMILES | effect on allodynia model [1] | number of flinch ([2]; first phase (0-10min after formalin injection)) | analgetic effects ([2]; formalin test in rats, summary statement) | number of flinch ([2]; second phase (10-60min after formalin injection)) | hyperalgesia to nociceptive thermostimulus ([3]; 0.2, 2 or 20µg/10µl/rat intrathecally 20min prior to plantar test, compared to vehicle treated rats) | analgetic effects ([3]; Bennett model in rats, summary statement)
1 | COC(=O)[C@@H](N)CCCNC(=N)N[N+](=O)[O-] [L-NAME] | showed effect |  |  |  |  | 
2 | C[C@H]1CC(=N)N[C@@H]2[C@H](Cl)[C@@H]21 [IA-1, (+)-trans-3-imino-5-methyl-7-chloro-2-azabicyclo[4.1.0]heptane Monohydrochloride] |  | decreased | showed analgetic effects | decreased | improved | showed analgetic effects
